Laboratory results taken from patent US9321750B2, “ROR modulators and their uses” (INNOV17 LLC, priority 2012, dated 2016).

Key:
RORγ LBD [1] = target: T1, RORγ LBD (Homo sapiens (Human), UniProt P51449); assay: TR-FRET co-activator D22 interaction with RORγ LBD; format: biochemical
Description: (§1) The Time-Resolved Fluorescence Resonance Energy Transfer (TR-FRET) assay kit (Life Technologies) was used to measure compound efficacy to disrupt or enhance ligand-mediated interaction of the co-activator and co-repressor peptides with the purified GST-tagged (i) RORγ LBD or (ii) […]. The RORγ LBD and RORα LBD each have a basal level of interaction with the co-activator D22 or co-repressor NCoR1-D2 in the absence of ligand, thus it is possible to identify compounds that inhibit or induce RORγ and/or RORα co-activator/co-repressor interactions, thus determining RORα, RORγ, or RORα/RORγ compound selectivity. The assay was performed as per manufacturer's instructions and TR-FRET was assessed 2 and 20 hours post-assay initiation. Compounds were identified to (i) have no impact on either co-activator displacement or […] from the assessed LBD (ii) promote co-activator displacement from the assessed LBD (iii) promote co-repressor recruitment to the assessed LBD or (iv) concurrently promote co-activator displacement from the assessed LBD and co-repressor recruitment to the assessed LBD.

IL-17F = assay: TH17 cytokine inhibition as measured by ELISA: IL-17F; format: cell-based; conditions: 120 h; human TH17 cells, 5 days differentiation, ELISA of supernatant
Description: (§2) Peripheral blood mononuclear cells (PBMCs) were sourced from freshly prepared leukocyte enriched plasma (buffy coat) from healthy volunteers from which PBMCs were isolated by density gradient centrifugation using Ficoll-Paque™ PLUS (GE Healthcare). Naïve CD4+ T cells were isolated using the Naïve CD4+ T cell Isolation Kit II (Miltenyi Biotec) as per manufacturer's instructions. CD4+ T cells were plated at 5×10^4 cells/well in 96 well plates pre-coated with immobilized human (h)-αCD3 antibody (eBioscience) then differentiated to TH17 cells using h-αCD28, h-αIFNγ, h-αIL4, h-IL6, h-IL23, h-IL1β, h-TGFβ1 (eBioscience) and maintained in a cell culture incubator at 37° C. with 5% CO2 in TexMACS Medium (Miltenyi Biotec) supplemented with 1% Penicillin/Streptomycin (Lonza) over 5 days.
(§3) Human CD4+ T cells were differentiated to TH17 cells as described in the presence or absence of various concentrations of compounds in a final concentration of 0.1% DMSO in TexMACS medium. Supernatants were collected and stored at −20° C. until they were to be assayed for IL-17A, IL-17F, IL-17AF, IL-21 and/or IL-22 levels as determined by Ready-Set-Go ELISA kits (eBioscience) as per manufacturer's instructions. Endpoint absorbance was read at 450 nm and 570 nm according to manufacturer's instructions (eBioscience) using a microplate reader (Perkin Elmer). The percentage of cytokine inhibition was calculated with reference to DMSO treated cells and the IC50s were determined by GraphPad Prism software and presented in the table below.

[2] = TH17 cell viability (Prestoblue); format: cell-based; design: concentration or dose not given beside the values; conditions: human; percentage of DMSO treated cells; read-out: % viability of compound treated TH17 cells
Description: as §2
Cells were assayed for viability in the presence or absence of compound using Prestoblue® Cell Viability Reagent (Life Technologies) as per manufacturer's instructions after 30 minutes incubation of TH17 cells with reagent. Absorbance was measured at 570 nm and 600 nm using a microplate reader (Perkin Elmer) and data were analyzed as per manufacturer's instructions. Cell viability was expressed as a percentage of DMSO treated cells.

RORα LBD [3] = target: T2, RORα LBD (Homo sapiens (Human), UniProt P35398); assay: TR-FRET co-repressor NCoR1-D2 interaction with RORα LBD; format: biochemical
Description: as §1

IL-22 = assay: TH17 cytokine inhibition as measured by ELISA: IL-22; format: cell-based; conditions: 120 h; human TH17 cells, 5 days differentiation, ELISA of supernatant
Description: as §2, §3

RORα LBD [4] = target: T2, RORα LBD; assay: TR-FRET co-activator D22 interaction with RORα LBD; format: biochemical
Description: as §1

RORγ LBD [5] = target: T1, RORγ LBD; assay: TR-FRET co-repressor NCoR1-D2 interaction with RORγ LBD; format: biochemical
Description: as §1

IL-17A = assay: TH17 cytokine inhibition as measured by ELISA: IL-17A; format: cell-based; conditions: 120 h; human TH17 cells, 5 days differentiation, ELISA of supernatant
Description: as §2, §3

TH17 cells = assay: TH17 cellular proliferation (Prestoblue); format: cell-based; conditions: Homo sapiens, 120 h; 3 μM compound, after 5 day TH17 differentiation, relative to DMSO treated TH17 cells; read-out: % change in TH17 cell number
Description: as §2
Cellular proliferation was assessed in the presence or absence of 3 μM compound using Prestoblue® Cell Viability Reagent (Life Technologies) as per manufacturer's instructions using absorbance as the output measured by a microplate reader (Perkin Elmer) after 30 minutes of incubation of cells and reagent. A standard curve developed by plotting varying cell numbers versus absorbance was used to assess differences in cellular proliferation between compound treated or untreated cells after the 5 day TH17 differentiation period.

[6] = 2 hr, co-activator recruitment (π), read-out: RORγ EC50 D22 2 hr (demonstrates co-activator recruitment)
[7] = 20 hr, read-out: RORγ EC50 D22 co-activator displacement 20 hr
[8] = 2 hr, read-out: RORα EC50 NCoR1-D2 co-repressor recruitment 2 hr
[9] = 20 hr, read-out: RORα EC50 NCoR1-D2 co-repressor recruitment 20 hr
[10] = 2 hr, read-out: RORα EC50 D22 co-activator displacement 2 hr
[11] = 20 hr, read-out: RORα EC50 D22 co-activator displacement 20 hr
[12] = 2 hr, read-out: RORγ EC50 NCoR1-D2 co-repressor recruitment 2 hr
[13] = 20 hr, read-out: RORγ EC50 NCoR1-D2 co-repressor recruitment 20 hr
[14] = 2 hr, read-out: RORγ EC50 D22 co-activator displacement 2 hr
[15] = 2 hr, co-activator recruitment (π), read-out: RORα EC50 D22 2 hr (demonstrates co-activator recruitment)
[16] = 20 hr, co-activator recruitment (π), read-out: RORα EC50 D22 20 hr (demonstrates co-activator recruitment)

T2 sequence (P35398 272-510): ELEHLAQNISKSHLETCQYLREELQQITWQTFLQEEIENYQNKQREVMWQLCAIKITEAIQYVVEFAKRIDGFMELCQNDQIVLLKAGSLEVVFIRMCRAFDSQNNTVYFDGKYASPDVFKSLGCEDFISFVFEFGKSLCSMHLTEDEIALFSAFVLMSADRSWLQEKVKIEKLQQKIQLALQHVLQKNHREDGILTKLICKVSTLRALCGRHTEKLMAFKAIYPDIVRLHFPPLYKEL
T1 sequence (P51449 269-508): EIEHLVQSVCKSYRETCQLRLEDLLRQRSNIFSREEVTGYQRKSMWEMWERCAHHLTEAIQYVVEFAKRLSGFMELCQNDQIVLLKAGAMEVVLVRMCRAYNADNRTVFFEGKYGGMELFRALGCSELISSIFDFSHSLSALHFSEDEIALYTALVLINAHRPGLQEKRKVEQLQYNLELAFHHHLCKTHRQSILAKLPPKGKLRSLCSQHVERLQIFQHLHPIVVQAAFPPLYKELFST

SMILES | EC50 (RORγ LBD [1]; [6]) | EC50 (RORγ LBD [1]; [7]) | IC50 (IL-17F) | EC50 (RORα LBD [3]; [8]) | EC50 (RORα LBD [3]; [9]) | IC50 (IL-22) | EC50 (RORα LBD [4]; [10]) | EC50 (RORα LBD [4]; [11]) | EC50 (RORγ LBD [5]; [12]) | EC50 (RORγ LBD [5]; [13]) | IC50 (IL-17A) | EC50 (RORγ LBD [1]; [14]) | EC50 (RORα LBD [4]; [15]) | EC50 (RORα LBD [4]; [16]) | EC50 (RORγ LBD [1]; 20 hr, co-activator recruitment (π), read-out: RORγ EC50 D22 20 hr (demonstrates co-activator recruitment)) | EC50 (RORα LBD [3]; 20 hr, co-repressor displacement (Ω), read-out: RORα EC50 NCoR1-D2 20 hr (demonstrates co-repressor displacement)) | viability [2] | inhibition at 3 µM (TH17 cells)
CC(=O)Nc1ccc2c(c1)CCN2Cc1ccc(C(=O)N(C)c2ccccc2)cc1 [Example 14, 4-((5-acetamidoindolin-1-yl)methyl)-N-methyl-N-phenylbenzamide] | < 30 µM | > 30 µM | < 10 µM | > 30 µM | > 30 µM | < 10 µM | > 30 µM | > 30 µM | > 30 µM | > 30 µM | < 10 µM |  |  |  |  |  | > 80% | 
CC(=O)Nc1ccc2c(c1)CCN2Cc1ccc(C(C)C)cc1 [Example 8, N-(1-(4-isopropylbenzyl)indolin-5-yl)acetamide] |  | < 30 µM | < 10 µM | > 30 µM | > 30 µM | < 10 µM | > 30 µM | > 30 µM | > 30 µM | > 30 µM | < 10 µM | < 30 µM |  |  |  |  | > 80% | ≤ 50%
CC(=O)Nc1ccc2c(c1)CCN2Cc1ccc(C(F)(F)F)cc1 [Example 7, N-(1-(4-(trifluoromethyl)benzyl)indolin-5-yl)acetamide] |  | < 30 µM | < 10 µM | > 30 µM | > 30 µM | < 10 µM | > 30 µM | > 30 µM | > 30 µM | > 30 µM | < 10 µM | > 30 µM |  |  |  |  | > 80% | ≤ 50%
CC(=O)Nc1ccc2c(c1)CCN2Cc1ccc(C(=O)Nc2ccccc2)cc1 [Example 15, 4-((5-acetamidoindolin-1-yl)methyl)-N-phenylbenzamide] |  | < 30 µM | < 10 µM | > 30 µM | > 30 µM | < 10 µM | > 30 µM | > 30 µM | > 30 µM | > 30 µM | < 10 µM | < 30 µM |  |  |  |  | > 80% | ≤ 50%

Second part, led by results:

EC50 (RORγ LBD [1]; [6]) | EC50 (RORγ LBD [1]; [7]) | IC50 (IL-17F) | EC50 (RORα LBD [3]; [8]) | EC50 (RORα LBD [3]; [9]) | IC50 (IL-22) | EC50 (RORα LBD [4]; [10]) | EC50 (RORα LBD [4]; [11]) | EC50 (RORγ LBD [5]; [12]) | EC50 (RORγ LBD [5]; [13]) | IC50 (IL-17A) | EC50 (RORγ LBD [1]; [14]) | EC50 (RORα LBD [4]; [15]) | EC50 (RORα LBD [4]; [16]) | EC50 (RORγ LBD [1]; 20 hr, co-activator recruitment (π), read-out: RORγ EC50 D22 20 hr (demonstrates co-activator recruitment)) | EC50 (RORα LBD [3]; 20 hr, co-repressor displacement (Ω), read-out: RORα EC50 NCoR1-D2 20 hr (demonstrates co-repressor displacement)) | SMILES | viability [2] | inhibition at 3 µM (TH17 cells)
 | < 30 µM | < 10 µM | > 30 µM | < 30 µM | < 10 µM | < 30 µM | > 30 µM | > 30 µM | > 30 µM | < 10 µM | < 30 µM |  |  |  |  | CC(=O)Nc1ccc2c(ccn2Cc2ccc(C(O)(C(F)(F)F)C(F)(F)F)cc2)c1 [Example 16, N-(1-(4-(1,1,1,3,3,3-hexafluoro-2-hydroxypropan-2-yl)benzyl)-1H-indol-5-yl)acetamide] | > 80% | ≤ 50%
 | > 30 µM | > 10 µM | > 30 µM | > 30 µM | > 10 µM | > 30 µM | > 30 µM | > 30 µM | > 30 µM | > 10 µM | > 30 µM |  |  |  |  | CC(=O)Nc1ccc2c(c1)CCN2Cc1ccc(C(=O)N(C)C)cc1 [Example 13, 4-((5-acetamidoindolin-1-yl)methyl)-N,N-dimethylbenzamide] | > 80% | ≤ 50%
< 30 µM | > 30 µM | > 10 µM | > 30 µM | > 30 µM | > 10 µM |  |  | > 30 µM | > 30 µM | > 10 µM |  | < 30 µM | < 30 µM |  |  | CC(=O)Nc1ccc2c(c1)CCN2Cc1ccc(C(N)=O)cc1 [Example 11, 4-((5-acetamidoindolin-1-yl)methyl)benzamide] | > 80% | ≤ 50%
< 30 µM |  | > 10 µM | > 30 µM |  | > 10 µM |  |  | > 30 µM | > 30 µM | > 10 µM |  | < 30 µM | < 30 µM | < 30 µM | < 30 µM | CNC(=O)c1ccc(CN2CCc3cc(NC(C)=O)ccc32)cc1 [Example 12, 4-((5-acetamidoindolin-1-yl)methyl)-N-methylbenzamide] | > 80% | ≤ 50%
 | > 30 µM | < 10 µM | > 30 µM | > 30 µM | < 10 µM | > 30 µM | > 30 µM | > 30 µM | > 30 µM | < 10 µM | > 30 µM |  |  |  |  | CC(=O)Nc1ccc2c(c1)CCN2Cc1ccc(-c2cc(C)n[nH]2)cc1 [Example 9, N-(1-(4-(3-methyl-1H-pyrazol-5-yl)benzyl)indolin-5-yl)acetamide] | > 80% | 
 | > 30 µM | > 10 µM | > 30 µM | > 30 µM | < 10 µM | < 30 µM | < 30 µM | > 30 µM | > 30 µM | > 10 µM | > 30 µM |  |  |  |  | CC(=O)Nc1ccc2c(c1)CCN2Cc1ccc(C2(O)CCC2)cc1 [Example 10, N-(1-(4-(1-hydroxycyclobutyl)benzyl)indolin-5-yl)acetamide] | > 80% | 
